# Data from US6555531B1, “Weight promoting composition, method, and product” (Pherin Pharmaceuticals, Inc., priority 1999, dated 2003).
# Values joined by “and” are separate entries in the source; they are usually repeats but may differ in a detail not shown here. Equal values may be shown once. “Also recorded” adds a separate entry of the source.
# What was measured:
# [1] = test system: VNO cells; experiment: In Vitro Study CL002: inward current in VNO cells; assay type: cell-based, human; conditions: for mean peak inward current: 10^−5 M
# Description: In Vitro Study CL002. This study was conducted using VNO cells that had been collected from healthy male and female volunteers. […] In addition, the magnitude of the response was greater in cells from women than in cells from men.
# [2] = test system: VNO; experiment: In Vivo Study CL001: electrovomerogram (EVG), autonomic parameters and EEG after VNO stimulation; parameters: species or system human; key to performance summary: EDA / performance summary: α-CA / performance summary: EVG: + indicates a moderate increase in activity; ++ indicates a substantial increase in activity; conditions: for EVG, difference from the response to placebo: 200 pg vapor pulse to VNO; for mean peak amplitude of the EVG (electrovomerogram) response: single intranasal dose
# Description: In Vivo Study CL001. This study was conducted in healthy male and female volunteers each tested with a single dose of (17β)19-norpregna-1,3,5(10)-trien-3-ol. The mean peak amplitude of the EVG (electrovomerogram) response to intranasal administration of (17β)19-norpregna-1,3,5(10)-trien-3-ol, reported as the magnitude of the difference from the response to placebo, was […] (13.9 mV in women and 5.3 mV in men difference from the response to placebo). […] In addition, the peak amplitude of the response in women was greater than that in men. Methods: For VNO stimulation, a 10^−8 M solution of (17β)19-norpregna-1,3,5(10)-trien-3-ol vomeropherin was prepared in propylene glycol (PG). A vapor pulse (duration: 2 seconds) of the vomeropherin was obtained bubbling clean air through the solution (air flow: 3 mL/min.). This delivered an estimated quantity of 200 pg of (17β)19-norpregna-1,3,5(10)-trien-3-ol to the VNO. The control was a pulse of PG alone in vapor form. Processing and analysis of the results was done off-line. The amplitude or frequency of the different parameters was measured. The mean and standard deviation of the mean were obtain for all parameters 5 minutes after stimulation with control, and (17β)19-norpregna-1,3,5(10)-trien-3-ol. The significance of the results was studied using the paired, two-tailed student t-test, and analysis of variance.
# [3] = test system: gonadotropin secretion; experiment: Study CL003: gonadotropin secretion study in healthy female volunteers; assay type: in vivo, human
# Description: Study CL003 was designed to investigate possible effects of (17β)19-norpregna-1,3,5(10)-trien-3-ol on gonadotropin secretion in healthy female volunteers. Because gonadotropins typically are secreted in a pulsatile pattern with 4-6 peaks per day, (17β)19-norpregna-1,3,5(10)-trien-3-ol was administered at 10-minute intervals over a 6-hour period. This timing was provided in order to determine whether (17β)19-norpregna-1,3,5(10)-trien-3-ol affected the pattern of pulsatility and/or the magnitude of the gonadotropin release. […] To follow up on these anecdotal reports, the investigators gave the subjects a questionnaire one month after completing their participation in the study to assess this effect of (17β)19-norpregna-1,3,5(10)-trien-3-ol in a systematic fashion.
# [4] = Study CL004: follow-on appetite study; assay type: in vivo, human; conditions: one dose every 10 minutes for 6 hours, interim findings
# Description: Study CL004. Study CL004 was conducted as a follow-on to the surprising appetite results of study CL003, and was designed to provide a more focused investigation of the effects of (17β)19-norpregna-1,3,5(10)-trien-3-ol on appetite. […] Study CL004 was conducted after study CL003 had been completed.
# [5] = Study CL005: food consumption and appetite study; assay type: in vivo, human; conditions: same dosing regimen; not after placebo; preliminary data analysis
# Excerpt: Study CL005. Study CL005 was designed to investigate in detail the effects of (17β)19-norpregna-1,3,5(10)-trien-3-ol -on food consumption in studies CL003 and CL004. The (17β)19-norpregna-1,3,5(10)-trien-3-ol dosing regimen was the same as had been used for the previous studies. Food intake and appetite were examined in this study in great detail. Subjects kept records of their appetite, food intake, etc., over a 3-4 month period.
# [6] = Study CL006: mealtime dosing in metabolic unit, appetite and food intake; assay type: in vivo, human; conditions: some participants, dosing with mealtimes, informal analysis of blinded data
# Excerpt: Study CL006. Study CL006 was designed to provide an evaluation of a more clinically meaningful (17β)19-norpregna-1,3,5(10)-trien-3-ol dosing regimen, as well as to provide a more controlled environment in which to evaluate appetite and food intake effects. In this study, subjects received (17β)19-norpregna-1,3,5(10)-trien-3-ol in association with mealtimes, and they remained in a metabolic unit throughout the study.
# [7] = dosed at 10-minute intervals over 6 hours
smiles,measurement,setting,value
"CC[C@H]1CC[C@H]2[C@@H]3CCc4cc(O)ccc4[C@H]3CC[C@]12C [(17β)19-norpregna-1,3,5(10)-trien-3-ol]",concentration of peak effect (inward current),[1]; VNO cells,10^−5 M
same,concentration at which inward current response was significantly different from the control response,[1]; VNO cells from men and women,≥ 10^−7 M
same,response of VNO cells to application,"[1]; cells from both men and women, magnitude dose dependent",development of an inward current
same,mean peak inward current,[1]; cells from men,55 pA
same,mean peak inward current,[1]; cells from women,96 pA
same,activity in the VNO,[2]; both female and male subjects,active
same,EDA compared with placebo,"[2]; eight female subjects, 200 pg, p<0.05",increased significantly from placebo; also recorded: increased EDA
same,Other autonomic parameters and EMG,[2]; female subjects,remained unchanged
same,performance summary: EDA,[2]; female subjects,+
same,performance summary: EVG,[2]; female subjects,++
same,performance summary: α-CA,[2]; female subjects,++
same,"Respiratory frequency (RF), difference from placebo","[2]; female subjects, 200 pg",+3.0 cycles/min
same,"alpha-cortical activity (α-CA), difference from placebo","[2]; female subjects, 200 pg",+35.8 μV^2/Hz
same,"beta-cortical activity (β-CA), difference from placebo","[2]; female subjects, 200 pg",−2.2 μV^2/Hz
same,"body temperature (BT), difference from placebo","[2]; female subjects, 200 pg",+0.2 °C
same,"cardiac frequency (CF), difference from placebo","[2]; female subjects, 200 pg",0 beats/min
same,"electromyogram (EMG), difference from placebo","[2]; female subjects, 200 pg",0 Hz
same,"EVG, difference from the response to placebo",[2]; female subjects,13.9 mV and 13.8 mV
same,"electrodermal activity (EDA), difference from placebo","[2]; female subjects, 200 pg, 5 minutes after stimulation",+109.4 μS
same,Alpha rhythm recorded from T4A2 compared with placebo,"[2]; female subjects, p<0.05",increased significantly from placebo
same,beta rhythm in CA2 compared with placebo,"[2]; female subjects, p<0.05",decreased beta rhythm
same,performance summary: EDA,[2]; male subjects,+
same,performance summary: EVG,[2]; male subjects,+
same,Body temperature compared with placebo,"[2]; male subjects, p<0.05",decreased
same,alpha rhythm compared with placebo,"[2]; male subjects, p<0.05",decreased
same,Other biological parameters,[2]; males,did not change significantly
same,"EVG, difference from the response to placebo",[2]; men,5.3 mV
same,EDA compared with placebo,"[2]; men, p<0.05",increased EDA
same,EVG response compared with placebo,"[2]; men, p<0.05",significantly greater than that to placebo; also recorded: significantly different from placebo
same,mean peak amplitude of the EVG (electrovomerogram) response,[2]; men,30 mV
same,"BT, difference from placebo",[2]; six male subjects,−1.2
same,"CF, difference from placebo",[2]; six male subjects,0
same,"EDA, difference from placebo",[2]; six male subjects,+79.1
same,"EMG, difference from placebo",[2]; six male subjects,0
same,"EVG, difference from placebo",[2]; six male subjects,+5.3
same,"RF, difference from placebo",[2]; six male subjects,−1.7
same,"α-CA, difference from placebo",[2]; six male subjects,−11.7
same,EVG response compared with placebo,[2]; women,significantly greater than that to placebo; also recorded: robust mean EVG; also recorded: large EVG
same,mean peak amplitude of the EVG (electrovomerogram) response,[2]; women,50 mV
same,appetite (questionnaire one month after study),[3]; all subjects,large increase in appetite
same,gonadotropin secretion,[3]; [7],No consistent changes
same,menstrual cycle pattern or ovulation,[3]; [7],no changes
same,appetite,"[4]; all subjects, not after placebo",increase in appetite for at least one week
same,body weight,[4],persistent increase in body weight
same,appetite,[5],perceived increase in appetite for at least one week
same,body weight,[6],treatment-related increase
same,food intake,[6],treatment-related increase
